In patent publication US20200247800A1, “SUBSTITUTED BICYCLIC HETEROCYCLIC COMPOUNDS AS NADPH OXIDASE INHIBITORS” (Glenmark Pharmaceuticals S.A., priority 2017, published 2020):

Biological target: T1, human NOX4 (Homo sapiens, UniProt Q9NPH5)
T1 construct: expressed in transfected cells; membrane fraction used
T1 sequence (Q9NPH5 1-578): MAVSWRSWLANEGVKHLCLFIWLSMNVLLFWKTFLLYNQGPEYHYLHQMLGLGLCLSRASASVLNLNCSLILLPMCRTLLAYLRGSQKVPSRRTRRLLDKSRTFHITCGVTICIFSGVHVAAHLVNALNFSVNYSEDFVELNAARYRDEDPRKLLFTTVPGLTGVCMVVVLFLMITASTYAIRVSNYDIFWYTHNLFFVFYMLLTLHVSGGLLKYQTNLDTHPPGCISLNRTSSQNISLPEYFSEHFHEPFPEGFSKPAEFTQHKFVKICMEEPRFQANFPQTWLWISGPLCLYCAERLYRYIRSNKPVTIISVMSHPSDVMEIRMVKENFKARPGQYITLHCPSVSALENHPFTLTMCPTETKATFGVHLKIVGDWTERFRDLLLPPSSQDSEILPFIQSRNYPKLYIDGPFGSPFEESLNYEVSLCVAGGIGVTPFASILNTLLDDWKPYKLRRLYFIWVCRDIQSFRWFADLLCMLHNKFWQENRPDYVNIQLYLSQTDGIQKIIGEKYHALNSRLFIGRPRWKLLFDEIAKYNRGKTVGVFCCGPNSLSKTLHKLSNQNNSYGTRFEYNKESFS
T1 sequence (P13498 1-195 partner): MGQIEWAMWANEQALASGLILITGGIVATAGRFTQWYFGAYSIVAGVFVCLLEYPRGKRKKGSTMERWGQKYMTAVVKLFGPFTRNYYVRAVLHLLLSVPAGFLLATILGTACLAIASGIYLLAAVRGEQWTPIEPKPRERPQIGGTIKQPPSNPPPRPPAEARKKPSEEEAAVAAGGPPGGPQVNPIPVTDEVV
Assay: Cell free membrane based in vitro NOX4 assay: H2O2 production by membranes expressing human NOX4, measured with Amplex Red
Type: biochemical
Settings: for inhibition at 1 µM: 1.0 μM compound, read-out: Percentage inhibition at 1.0 μM; for inhibition at 10 µM: 10.0 μM compound, read-out: Percentage inhibition at 10.0 μM; for IC50: class symbols
Description: The inhibition of NOX4 activity was measured as inhibition of formation of reactive oxygen species (ROS) from oxygen in cell free assays. […] A cell free membrane based in vitro assay was developed by preparing membranes from cells stably overexpressing human NOX4. hNOX4/HEK stable cell line was generated in-house for this purpose. Membranes from stably transfected cells overexpressing human NOX4 were prepared by homogenizing the cells in buffer (20 mM HEPES, 1 mM EGTA, 0.5 mM DTT, 0.5% protease inhibitor cocktail, 1 mM PMSF, pH 7.6), followed by centrifugation at 160000 g for 30 min. Membrane fraction (pellet) was resuspended in storage buffer (homogenization buffer with 10% glycerol and 100 mM NaCl) and stored at −80° C. Protein concentration was determined by Bradford reagent. H202 production by membranes expressing human NOX4 was measured using Amplex Red (Invitrogen) by following a slightly modified version of the manufacturer's instruction manual. Briefly, membranes were incubated in assay buffer (25 mM HEPES, 0.12 M NaCl, 3 mM KCl, 1 mM MgCl2, pH 7.4) with Horse Radish Peroxidase (HRP) and Amplex Red. Reaction was started by addition of […] to the membrane mix. Antagonism of NOX4 inhibitors was measured by incubating the membrane with increasing concentrations of the inhibitors for 20 min on a plate shaker prior to addition of NADPH. H2O2 levels were measured for 10 min in a BMG Fluostar microplate reader with excitation and emission wavelengths of 544 nm and 590 nm respectively. Concentration response curves were plotted as a % of maximal response obtained in the absence of the inhibitor. IC50 value was calculated from concentration response curve by nonlinear regression analysis using GraphPad PRISM software.

inhibition at 1 µM [%]	inhibition at 10 µM [%]	IC50 [µM]	Structure (SMILES)
100	100	> 0.15	COc1ccc(Cl)c(-c2[nH]c3c(c(C(F)(F)F)nn3C)c(=O)c2O)c1 [Example 49, 6-(2-Chloro-5-methoxyphenyl)-5-hydroxy-1-methyl-3-(trifluoromethyl)-1,7-dihydro-4H-pyrazolo[3,4-b]pyridin-4-one]
89.3	99.5	0.1 to 0.15	Cn1nc(C(F)(F)F)c2c(=O)c(O)c(-c3cc(Cl)ccc3Cl)[nH]c21 [Example 50, 6-(2,5-Dichlorophenyl)-5-hydroxy-1-methyl-3-(trifluoromethyl)-1,7-dihydro-4H-pyrazolo[3,4-b]pyridin-4-one]
74.4	86.5	> 0.15	COc1ccc(-c2[nH]c3c(c(C(F)(F)F)nn3C)c(=O)c2O)c(OC)c1 [Example 51, 6-(2,4-Dimethoxyphenyl)-5-hydroxy-1-methyl-3-(trifluoromethyl)-1,7-dihydro-4H-pyrazolo[3,4-b]pyridin-4-one]
75.8	94.9	> 0.15	Cn1nc(C(F)(F)F)c2c(=O)c(O)c(-c3ccc(Cl)cc3F)[nH]c21 [Example 52, 6-(4-Chloro-2-fluorophenyl)-5-hydroxy-1-methyl-3-(trifluoromethyl)-1,7-dihydro-4H-pyrazolo[3,4-b]pyridin-4-one]
90.5	84.6	0.1 to 0.15	COc1ccc(-c2[nH]c3c(c(C(F)(F)F)nn3C)c(=O)c2O)cc1 [Example 53, 5-Hydroxy-6-(4-methoxyphenyl)-1-methyl-3-(trifluoromethyl)-1,7-dihydro-4H-pyrazolo[3,4-b]pyridin-4-one]
92.1	94.5	0.1 to 0.15	Cn1nc(C(F)(F)F)c2c(=O)c(O)c(-c3ccc(-n4ccnc4)cc3)[nH]c21 [Example 54, 5-Hydroxy-6-[4-(1H-imidazol-1-yl)phenyl]-1-methyl-3-(trifluoromethyl)-1,7-dihydro-4H-pyrazolo[3,4-b]pyridin-4-one]
83.8	94.2	> 0.15	Cn1nc(C(F)(F)F)c2c(=O)c(O)c(-c3ccncc3)[nH]c21 [Example 55, 5-Hydroxy-1-methyl-6-(pyridin-4-yl)-3-(trifluoromethyl)-1,7-dihydro-4H-pyrazolo[3,4-b]pyridin-4-one]
82.4	69.8	< 0.05	CCc1nn(C)c2[nH]c(-c3ccccc3Cl)c(O)c(=O)c12 [Example 56, 6-(2-Chlorophenyl)-3-ethyl-5-hydroxy-1-methyl-1,7-dihydro-4H-pyrazolo[3,4-b]pyridin-4-one]
21.9	13.5		Cn1nc2[nH]c(-c3ccccc3Cl)c(O)c(=O)c2c1Cc1ccccc1F [Example 57, 6-(2-Chlorophenyl)-3-(2-fluorobenzyl)-5-hydroxy-2-methyl-2,7-dihydro-4H-pyrazolo[3,4-b]pyridin-4-one]
36.7	51.2		Cn1nc2[nH]c(-c3ccccc3Cl)c(O)c(=O)c2c1-c1ccc(F)cc1 [Example 58, 6-(2-Chlorophenyl)-3-(4-fluorophenyl)-5-hydroxy-2-methyl-2,7-dihydro-4H-pyrazolo[3,4-b]pyridin-4-one]
41.1	38.8		Cc1c2c(=O)c(O)c(-c3ccccc3Cl)[nH]c2nn1C [Example 59, 6-(2-Chlorophenyl)-5-hydroxy-2,3-dimethyl-2,7-dihydro-4H-pyrazolo[3,4-b]pyridin-4-one]
77	100	> 0.15	Cc1cc2c(=O)c(O)c(-c3ccccc3Cl)[nH]c2s1 [Example 60, 6-(2-Chlorophenyl)-5-hydroxy-2-methylthieno[2,3-b]pyridin-4(7H)-one]
100	100	0.05 to 0.1	Cc1cc2c(=O)c(O)c(-c3ccc(F)c(C(F)(F)F)c3)[nH]c2s1 [Example 61, 6-[4-Fluoro-3-(trifluoromethyl)phenyl]-5-hydroxy-2-methylthieno[2,3-b]pyridin-4(7H)-one]
39	98	> 0.15	Cc1nc2c(=O)c(O)c(-c3ccccc3Cl)[nH]c2s1 [Example 62, 5-(2-Chlorophenyl)-6-hydroxy-2-methyl[1,3]thiazolo[5,4-b]pyridin-7(4H)-one]
58.6	100	> 0.15	O=c1c(O)c(-c2ccccc2Cl)[nH]c2sc(C(F)(F)F)nc12 [Example 63, 5-(2-Chlorophenyl)-6-hydroxy-2-trifluoromethyl[1,3]thiazolo[5,4-b]pyridin-7(4H)-one]
68.8	100	> 0.15	Cc1noc2[nH]c(-c3ccccc3Cl)c(O)c(=O)c12 [Example 64, 6-(2-Chlorophenyl)-5-hydroxy-3-methyl[1,2]oxazolo[5,4-b]pyridin-4(7H)-one]
74.7	63.1	> 0.15	COCCOc1ccc(-c2[nH]c3c(c(C)nn3C)c(=O)c2O)c(Cl)c1 [Example 65, 6-(2-Chloro-4-(2-methoxyethoxy)phenyl)-5-hydroxy-1,3-dimethyl-1H-pyrazolo[3,4-b]pyridin-4(7H)-one]
100	100	> 0.15	COCCOc1ccc(-c2[nH]c3c(c(C(F)(F)F)nn3C)c(=O)c2O)c(F)c1 [Example 66, 6-(2-Fluoro-4-(2-methoxyethoxy)phenyl)-5-hydroxy-1-methyl-3-(trifluoromethyl)-1H-pyrazolo[3,4-b]pyridin-4(7H)-one]
87.1	85.7	0.05 to 0.1	COc1cc(F)c(-c2[nH]c3c(c(C)nn3C)c(=O)c2O)c(F)c1 [Example 67, 6-(2,6-Difluoro-4-methoxyphenyl)-5-hydroxy-1,3-dimethyl-1H-pyrazolo[3,4-b]pyridin-4(7H)-one]
84.3	80.3	0.05 to 0.1	CCn1nc(C)c2c(=O)c(O)c(-c3c(F)cccc3F)[nH]c21 [Example 68, 6-(2,6-Difluorophenyl)-1-ethyl-5-hydroxy-3-methyl-1H-pyrazolo[3,4-b]pyridin-4(7H)-one]
67.2		> 0.15	CCn1nc(C)c2c(=O)c(O)c(-c3ccc(OC)cc3F)[nH]c21 [Example 69, 1-Ethyl-6-(2-fluoro-4-methoxyphenyl)-5-hydroxy-3-methyl-1H-pyrazolo[3,4-b]pyridin-4(7H)-one]
97.5	98.4	> 0.15	COc1ccc(-c2[nH]c3c(c(C)nn3CC(F)(F)F)c(=O)c2O)c(F)c1 [Example 70, 6-(2-Fluoro-4-methoxyphenyl)-5-hydroxy-3-methyl-1-(2,2,2-trifluoroethyl)-1H-pyrazolo[3,4-b]pyridin-4(7H)-one]
81.5	79.3	< 0.05	CCc1nn(C)c2[nH]c(-c3c(F)cccc3F)c(O)c(=O)c12 [Example 71, 6-(2,6-Difluorophenyl)-3-ethyl-5-hydroxy-1-methyl-1H-pyrazolo[3,4-b]pyridin-4(7H)-one]
